Assay results from patent publication US10442803B2, “Tricyclic heterocycles as bet protein inhibitors” (Incyte Corporation, priority 2013, dated 2019).
Where two headings read alike, the source gives them in different places.

Tested on: KMS.12.BM cells
Test: KMS.12.BM cell viability assay
Type: cell-based
Conditions: KMS.12.BM human myeloma cells, 3 days, Cell Titer-GLO ATP quantitation, read-out: KMS cellular IC50
Experimental: KMS.12.BM cell line (human myeloma) was purchased from JCRB (Osaka, Japan) and maintained in RPMI with 10% FBS culture medium. To measure the cytotoxic activity of the compounds through ATP quantitation, the KMS.12.BM cells are plated in the RPMI culture medium at 5000 cells/well/per 100 μL into a 96-well polystyrene clear black tissue culture plate (Greiner-bio-one through VWR, NJ), in the presence or absence of a concentration range of test compounds. After 3 days, […] Cell Titer-GLO Luminescent (Promega, Madison, Wis.) cell culture agent is added to each well for 10 minutes at room temperature to stabilize the luminescent signal. This determines the number of viable cells in culture based on quantitation of the ATP present, which signals the presence of metabolically active cells. Luminescence is measured with the Top Count 384 (Packard Bioscience through Perkin Elmer, Boston, Mass.).
IC50 data for the Examples is presented in Table 4 as determined by Assay B1.

| SMILES | IC50 (72 h) [nM] | IC50 [nM] |
| --- | --- | --- |
| Cc1nnc2ccc3c(cc(-c4cn(C)cn4)n3Cc3ccccc3)n12 [Example 70, 6-benzyl-1-methyl-7-(1-methyl-1H-imidazol-4-yl)-6H-pyrrolo[2,3-e][1,2,4]triazolo[4,3-a]pyridine] | ≤ 1000 |  |
| Cc1nnc2ccc3c(cc(-c4ccsc4)n3Cc3ccccc3)n12 [Example 72, 6-benzyl-1-methyl-7-(3-thienyl)-6H-pyrrolo[2,3-e][1,2,4]triazolo[4,3-a]pyridine] | ≤ 1000 |  |
| Cc1nnc2ccc3c(cc(-c4cccs4)n3Cc3ccccc3)n12 [Example 73, 6-benzyl-1-methyl-7-(2-thienyl)-6H-pyrrolo[2,3-e][1,2,4]triazolo[4,3-a]pyridine] | ≤ 1000 |  |
| Cc1nnc2ccc3c(cc(-c4c[nH]cn4)n3Cc3ccccc3)n12 [Example 74, 6-benzyl-7-(1H-imidazol-4-yl)-1-methyl-6H-pyrrolo[2,3-e][1,2,4]triazolo[4,3-a]pyridine] | ≤ 1000 |  |
| Cc1nnc2ccc3c(cc(-c4cn(CCN5CCOCC5)cn4)n3Cc3ccccc3)n12 [Example 75, 6-benzyl-1-methyl-7-[1-(2-morpholin-4-ylethyl)-1H-imidazol-4-yl]-6H-pyrrolo[2,3-e][1,2,4]triazolo[4,3-a]pyridine] | ≤ 1000 |  |
| Cc1nnc2ccc3c(cc(-c4ccn(C)n4)n3Cc3ccccc3)n12 [Example 76, 6-benzyl-1-methyl-7-(1-methyl-1H-pyrazol-3-yl)-6H-pyrrolo[2,3-e][1,2,4]triazolo[4,3-a]pyridine] | ≤ 1000 |  |
| Cc1nnc2ccc3c(cc(-c4ccn(CCN5CCOCC5)n4)n3Cc3ccccc3)n12 [Example 77, 6-benzyl-1-methyl-7-[1-(2-morpholin-4-ylethyl)-1H-pyrazol-3-yl]-6H-pyrrolo[2,3-e][1,2,4]triazolo[4,3-a]pyridine] | ≤ 1000 |  |
| Cc1nnc2ccc3c(cc(-c4ccn(CCC#N)n4)n3Cc3ccccc3)n12 [Example 78, 3-[3-(6-benzyl-1-methyl-6H-pyrrolo[2,3-e][1,2,4]triazolo[4,3-a]pyridin-7-yl)-1H-pyrazol-1-yl]propanenitrile] | ≤ 1000 |  |
| CCn1ccc(-c2cc3c(ccc4nnc(C)n43)n2Cc2ccccc2)n1 [Example 79, 6-benzyl-7-(1-ethyl-1H-pyrazol-3-yl)-1-methyl-6H-pyrrolo[2,3-e][1,2,4]triazolo[4,3-a]pyridine] | ≤ 1000 |  |
| CCn1cnc(-c2cc3c(ccc4nnc(C)n43)n2Cc2ccccc2)c1 [Example 80, 6-benzyl-7-(1-ethyl-1H-imidazol-4-yl)-1-methyl-6H-pyrrolo[2,3-e][1,2,4]triazolo[4,3-a]pyridine] | ≤ 1000 |  |
| Cc1nnc2ccc3c(cc(-c4cn(CCC#N)cn4)n3Cc3ccccc3)n12 [Example 81, 3-[4-(6-benzyl-1-methyl-6H-pyrrolo[2,3-e][1,2,4]triazolo[4,3-a]pyridin-7-yl)-1H-imidazol-1-yl]propanenitrile] | ≤ 1000 |  |
| CNC(=O)c1cc2c(ccc3nnc(C)n32)n1Cc1ccccc1 [Example 82, 6-benzyl-N,1-dimethyl-6H-pyrrolo[2,3-e][1,2,4]triazolo[4,3-a]pyridine-7-carboxamide] | ≤ 1000 |  |
| CCCNC(=O)c1cc2c(ccc3nnc(C)n32)n1Cc1ccccc1 [Example 83, 6-benzyl-1-methyl-N-propyl-6H-pyrrolo[2,3-e][1,2,4]triazolo[4,3-a]pyridine-7-carboxamide] | ≤ 1000 |  |
| Cc1nnc2ccc3c(cc(C(=O)NC4CCC4)n3Cc3ccccc3)n12 [Example 85, 6-benzyl-N-cyclobutyl-1-methyl-6H-pyrrolo[2,3-e][1,2,4]triazolo[4,3-a]pyridine-7-carboxamide] | ≤ 1000 |  |
| Cc1nnc2ccc3c(cc(-c4ccn(CCN(C)C)n4)n3Cc3ccccc3)n12 [Example 89, 2-[3-(6-benzyl-1-methyl-6H-pyrrolo[2,3-e][1,2,4]triazolo[4,3-a]pyridin-7-yl)-1H-pyrazol-1-yl]-N,N-dimethylethanamine] | ≤ 1000 |  |
| Cc1nnc2ccc3c(cc(-c4ccn(C5(CC#N)CNC5)n4)n3Cc3ccccc3)n12 [Example 90, {3-[3-(6-benzyl-1-methyl-6H-pyrrolo[2,3-e][1,2,4]triazolo[4,3-a]pyridin-7-yl)-1H-pyrazol-1-yl]azetidin-3-yl}acetonitrile] | ≤ 1000 |  |
| CC(=O)N1CC(CC#N)(n2ccc(-c3cc4c(ccc5nnc(C)n54)n3Cc3ccccc3)n2)C1 [Example 91, {1-acetyl-3-[3-(6-benzyl-1-methyl-66H-pyrrolo[2,3-e][1,2,4]triazolo[4,3-a]pyridin-7-yl)-1H-pyrazol-1-yl]azetidin-3-yl}acetonitrile] | ≤ 1000 |  |

| SMILES | IC50 (72 h) [nM] | IC50 [nM] |
| --- | --- | --- |
| Cc1nnc2ccc3c(cc(-c4ccn(C5(CC#N)CN(S(C)(=O)=O)C5)n4)n3Cc3ccccc3)n12 [Example 92, [3-[3-(6-benzyl-1-methyl-6H-pyrrolo[2,3-e][1,2,4]triazolo[4,3-a]pyridin-7-yl)-1H-pyrazol-1-yl]-1-(methylsulfonyl)azetidin-3-yl]acetonitrile] | ≤ 1000 |  |
| Cc1nnc2ccc3c(cc(-c4ccn(C5(CC#N)CN(C)C5)n4)n3Cc3ccccc3)n12 [Example 93, {3-[3-(6-benzyl-1-methyl-6H-pyrrolo[2,3-e][1,2,4]triazolo[4,3-a]pyridin-7-yl)-1H-pyrazol-1-yl]-1-methylazetidin-3-yl}acetonitrile] | ≤ 1000 |  |
| Cc1nnc2ccc3c(cc(-c4ccn(CCC(=O)N(C)C)n4)n3Cc3ccccc3)n12 [Example 95, 3-[3-(6-benzyl-1-methyl-6H-pyrrolo[2,3-e][1,2,4]triazolo[4,3-a]pyridin-7-yl)-1H-pyrazol-1-yl]-N,N-dimethylpropanamide] | ≤ 1000 |  |
| CCNC(=O)CCn1ccc(-c2cc3c(ccc4nnc(C)n43)n2Cc2ccccc2)n1 [Example 96, 3-[3-(6-benzyl-1-methyl-6H-pyrrolo[2,3-e][1,2,4]triazolo[4,3-a]pyridin-7-yl)-1H-pyrazol-1-yl]-N-ethylpropanamide] | ≤ 1000 |  |
| CNC(=O)CCn1ccc(-c2cc3c(ccc4nnc(C)n43)n2Cc2ccccc2)n1 [Example 97, 3-[3-(6-benzyl-1-methyl-6H-pyrrolo[2,3-e][1,2,4]triazolo[4,3-a]pyridin-7-yl)-1H-pyrazol-1-yl]-N-methylpropanamide] | ≤ 1000 |  |
| Cc1nnc2ccc3c(cc(-c4ccn(CCC(N)=O)n4)n3Cc3ccccc3)n12 [Example 98, 3-[3-(6-benzyl-1-methyl-6H-pyrrolo[2,3-e][1,2,4]triazolo[4,3-a]pyridin-7-yl)-1H-pyrazol-1-yl]propanamide] | ≤ 1000 |  |
| CNC(=O)c1cc2c(ccc3nnc(C)n32)n1Cc1cccc(Cl)c1 [Example 99, 6-(3-chlorobenzyl)-N,1-dimethyl-6H-pyrrolo[2,3-e][1,2,4]triazolo[4,3-a]pyridine-7-carboxamide] | ≤ 1000 |  |
| Cc1nnc2ccc3c(cc(C(=O)N[C@H]4C[C@H](C#N)C4)n3Cc3ccccc3)n12 [Example 100, 6-benzyl-N-(trans-3-cyanocyclobutyl)-1-methyl-6H-pyrrolo[2,3-e][1,2,4]triazolo[4,3-a]pyridine-7-carboxamide] | 1000 to 10000 |  |
| Cc1nnc2ccc3c(cc(C(=O)N[C@H]4C[C@@H](C#N)C4)n3Cc3ccccc3)n12 [Example 101, 6-benzyl-N-(cis-3-cyanocyclobutyl)-1-methyl-6H-pyrrolo[2,3-e][1,2,4]triazolo[4,3-a]pyridine-7-carboxamide] | 1000 to 10000 |  |
| CNC(=O)c1cc2c(ccc3nnc(C)n32)n1Cc1cccc(F)c1 [Example 102, 6-(3-fluorobenzyl)-N,1-dimethyl-6H-pyrrolo[2,3-e][1,2,4]triazolo[4,3-a]pyridine-7-carboxamide] | ≤ 1000 |  |
| Cc1nnc2ccc3c(cc(-c4ccn(CCC(=O)N(C)C)n4)n3Cc3cccc(Cl)c3)n12 [Example 103, 3-{3-[6-(3-chlorobenzyl)-1-methyl-6H-pyrrolo[2,3-e][1,2,4]triazolo[4,3-a]pyridin-7-yl]-1H-pyrazol-1-yl}-N,N-dimethylpropanamide] |  | ≤ 1000 |
| Cc1nnc2ccc3c(cc(-c4ccn(CCC(=O)N5CCC5)n4)n3Cc3cccc(Cl)c3)n12 [Example 104, 7-[1-(3-azetidin-1-yl-3-oxopropyl)-1H-pyrazol-3-yl]-6-(3-chlorobenzyl)-1-methyl-6H-pyrrolo[2,3-e][1,2,4]triazolo[4,3-a]pyridine] | ≤ 1000 |  |
| Cc1nnc2ccc3c(cc(-c4ccn(CCC(=O)N5CCN(C)CC5)n4)n3Cc3cccc(Cl)c3)n12 [Example 105, 6-(3-chlorobenzyl)-1-methyl-7-{1-[3-(4-methylpiperazin-1-yl)-3-oxopropyl]-1H-pyrazol-3-yl}-6H-pyrrolo[2,3-e][1,2,4]triazolo[4,3-a]pyridine] | ≤ 1000 |  |
| CC(=O)N1CC(CC#N)(n2ccc(-c3cc4c(ccc5nnc(C)n54)n3Cc3cccc(Cl)c3)n2)C1 [Example 106, (1-acetyl-3-{3-[6-(3-chlorobenzyl)-1-methyl-6H-pyrrolo[2,3-e][1,2,4]triazolo[4,3-a]pyridin-7-yl]-1H-pyrazol-1-yl}azetidin-3-yl)acetonitrile] | ≤ 1000 |  |
| Cc1nnc2ccc3c(cc(-c4ccn(C5(CC#N)CN(S(C)(=O)=O)C5)n4)n3Cc3cccc(Cl)c3)n12 [Example 107, [3-{3-[6-(3-chlorobenzyl)-1-methyl-6H-pyrrolo[2,3-e][1,2,4]triazolo[4,3-a]pyridin-7-yl]-1H-pyrazol-1-yl}-1-(methylsulfonyl)azetidin-3-yl]acetonitrile] | ≤ 1000 |  |
| CC(=O)N1CC(n2ccc(-c3cc4c(ccc5nnc(C)n54)n3Cc3cccc(Cl)c3)n2)C1 [Example 108, 7-[1-(1-acetylazetidin-3-yl)-1H-pyrazol-3-yl]-6-(3-chlorobenzyl)-1-methyl-6H-pyrrolo[2,3-e][1,2,4]triazolo[4,3-a]pyridine] | ≤ 1000 |  |
